Two molecules from patent US20230416287A1, “Chemical Compounds” (GLAXOSMITHKLINE INTELLECTUAL PROPERTY DEVELOPMENT LIMITED, priority 2022, published 2023) can be followed below.

The nature of one data set: CAD kinetic solubility. The format is physicochemical. The conditions noted are these: phosphate buffered saline (PBS), aqueous buffer, PBS pH 7.4, 1 hour equilibration at room temperature, from DMSO stock, HPLC-CAD. The protocol:
Kinetic solubility was measured using Charged Aerosol Detector (CAD). The aqueous kinetic solubility at pH 7.4 was determined by measuring the concentration of solute in solution after precipitation from DMSO stock solution. The DMSO stock solution was diluted 20-fold with phosphate buffered saline (PBS) pH 7.4 and the solubility of the compound was measured after 1 hour equilibration at room temperature by HPLC-CAD.

Data set [1] addresses T1, human Nav1.8 (Homo sapiens, UniProt Q9Y5Y9). The data set is described as follows: Manual patch-clamp electrophysiology assay, HEK293 cells overexpressing human Nav1.8. The format is cell-based. More on the design: host or cells: HEK293. The conditions noted are these: manual whole-cell patch-clamp, single-pulse resting protocol, holding voltage -120 mV, step to 0 mV, room temperature. The text has this:
The pharmacological activity of the Compounds of Example 4A and Example 5A (active parent compound of prodrug Example 4 and Example 5, respectively) was investigated by a patch-clamp electrophysiological method using a cellular system in which human Nav1.8 was overexpressed in HEK293 cells. Using this approach Nav1.8 can be activated by modulating the plasma membrane voltage and then channel function (Na^+ conduction) can be directly quantified. The ability of Nav1.8 inhibitors to block channel function in this system is a measurement of target binding and inhibition.
Cell preparation: HEK293 cells overexpressing human Nav1.8 (BIOCAT124824) were grown at 37° C., 5% C02 in medium (DMEM/F12 with 10% FBS, 2 mM GlutaMAX, 0.1 mM NEAA and […] G418, […] Hygromycin-B and […] Puromycin). […]
Voltage-clamp recording protocol: Compound effects were tested using single-pulse resting protocol in which cells were depolarized to 0 mV for 50 ms from a holding voltage of −120 mV. The peak current amplitudes were measured from the activated currents at 0 mV. […]
Nav1.8 current amplitudes measurement and normalization: Nav1.8 peak currents elicited by test pulse of 0 mV were measured and analysed by Clampfit 10.6 Software (Molecular Devices, USA). […]
Compound inhibition analysis: The compound inhibition effect was calculated using the following equation: […]

In data set [2] the target is T1, human Nav1.8. Description: Nav1.8 inhibitory activity, QPatch 48 HTX electrophysiology in HEK293-Nav1.8 cells. The format is cell-based. The conditions noted are these: half inactivation state voltage protocol (V1/2), HEK293 cells expressing human Nav1.8, read-out: [Nav1.8] pIC50 (converted). More on the design: expressed in transfected cells; host or cells: HEK293. The procedure:
Biological Assay 1: Nav1.8 Inhibitory Activity Human embryonic kidney 293 cells (HEK293) expressing human Nav1.8, human Navol and human TREK1 (HEK293-Nav1.8) were grown in T150 cell culture flasks at 37° C., 5% CO2 incubator. HEK293-Nav1.8 were passaged every 2-3 days when confluency reached 80-90% in T150 cell culture flasks.
Pharmacological assessment of compounds of the invention was performed using the QPatch 48 HTX electrophysiological platform. HEK293-Nav1.8 cells were prepared on the day of use by removing culture media, washing in DPBS, adding Accutase (2 mL to cover the surface, aspirate 1 mL then 1-2 minutes at 37° C.) followed by addition of CHO-SFM II to stop the enzyme digestion and in order to obtain a suspension of 3×10^6 cell/mL.
Compounds of the invention were prepared in an extracellular solution of the following composition: NaCl (145 mM), KCl (4 mM), CaCl2) (2 mM), MgCl (2 mM), HEPES (1 mM), Glucose (10 mM), pH 7.4 with NaOH Osmolality 300 mOsM/L. An intracellular solution of the following composition was used: CsF (115 mM), CsCl (20 mm), NaCl (5 mM), EGTA (10 mM), HEPES (10 mM), Sucrose (20 mM), pH 7.2 with CsOH Osmolality 310 mOsm/L.
Utilizing the voltage-clamp mode in the QPatch 48 HTX system a half inactivation state voltage protocol (V1/2) was used to determine pharmacological activity of compounds of the invention at Nav1.8 ion channels. A V1/2 protocol was utilized with the following voltage steps: a holding voltage of −100 mV was established followed by a 20 ms voltage step to 0 mV (P1), followed by an inactivating voltage step at −46 mV for 8 seconds, followed by a step to −100 mV for 20 ms, before a 20 ms step to 0 mV (P2), then returned to the holding voltage of −100 mV. This voltage protocol was repeated at a frequency of every 15 seconds, the current magnitude was quantified at the P2 step throughout the recording. Inhibition of the measured current amplitude with compounds of the invention was analyzed by fitting a 4-6 points dose-response curve allowing determination of the fifty percent inhibition concentration (IC50). P2 currents were normalized according to measurements made at baseline (Baseline, vehicle only), after compound (Input, at each test concentration), and after positive reference compound (FullResponse, to achieve complete block), fit to the following equation: […]
To assess current run-down over the course of the experiment vehicle-only wells were utilized and the normalized current with vehicle-only (n. IVEH) was determined. To correct the compound response for run-down, the currents were corrected according to the following formula:
[formula] • Compound inhibition was fitted to the following Hill Equation to estimate the half maximal inhibition concentration (IC50)
[formula] • where Y is the normalized run-down corrected inhibition relative to the vehicle control (equivalent to n. IRD_Correct), C the test compound concentration, IC50 the concentration of test compound to inhibit the sodium current by 50%, and h the Hill coefficient.
(In patch-clamp work, channel activity is measured electrically.)

In brackets after ≈: the same amount, converted by molar mass.

By solubility is commonly meant the concentration that dissolves in the medium under given conditions.

T1 sequence (Q9Y5Y9 whole entry): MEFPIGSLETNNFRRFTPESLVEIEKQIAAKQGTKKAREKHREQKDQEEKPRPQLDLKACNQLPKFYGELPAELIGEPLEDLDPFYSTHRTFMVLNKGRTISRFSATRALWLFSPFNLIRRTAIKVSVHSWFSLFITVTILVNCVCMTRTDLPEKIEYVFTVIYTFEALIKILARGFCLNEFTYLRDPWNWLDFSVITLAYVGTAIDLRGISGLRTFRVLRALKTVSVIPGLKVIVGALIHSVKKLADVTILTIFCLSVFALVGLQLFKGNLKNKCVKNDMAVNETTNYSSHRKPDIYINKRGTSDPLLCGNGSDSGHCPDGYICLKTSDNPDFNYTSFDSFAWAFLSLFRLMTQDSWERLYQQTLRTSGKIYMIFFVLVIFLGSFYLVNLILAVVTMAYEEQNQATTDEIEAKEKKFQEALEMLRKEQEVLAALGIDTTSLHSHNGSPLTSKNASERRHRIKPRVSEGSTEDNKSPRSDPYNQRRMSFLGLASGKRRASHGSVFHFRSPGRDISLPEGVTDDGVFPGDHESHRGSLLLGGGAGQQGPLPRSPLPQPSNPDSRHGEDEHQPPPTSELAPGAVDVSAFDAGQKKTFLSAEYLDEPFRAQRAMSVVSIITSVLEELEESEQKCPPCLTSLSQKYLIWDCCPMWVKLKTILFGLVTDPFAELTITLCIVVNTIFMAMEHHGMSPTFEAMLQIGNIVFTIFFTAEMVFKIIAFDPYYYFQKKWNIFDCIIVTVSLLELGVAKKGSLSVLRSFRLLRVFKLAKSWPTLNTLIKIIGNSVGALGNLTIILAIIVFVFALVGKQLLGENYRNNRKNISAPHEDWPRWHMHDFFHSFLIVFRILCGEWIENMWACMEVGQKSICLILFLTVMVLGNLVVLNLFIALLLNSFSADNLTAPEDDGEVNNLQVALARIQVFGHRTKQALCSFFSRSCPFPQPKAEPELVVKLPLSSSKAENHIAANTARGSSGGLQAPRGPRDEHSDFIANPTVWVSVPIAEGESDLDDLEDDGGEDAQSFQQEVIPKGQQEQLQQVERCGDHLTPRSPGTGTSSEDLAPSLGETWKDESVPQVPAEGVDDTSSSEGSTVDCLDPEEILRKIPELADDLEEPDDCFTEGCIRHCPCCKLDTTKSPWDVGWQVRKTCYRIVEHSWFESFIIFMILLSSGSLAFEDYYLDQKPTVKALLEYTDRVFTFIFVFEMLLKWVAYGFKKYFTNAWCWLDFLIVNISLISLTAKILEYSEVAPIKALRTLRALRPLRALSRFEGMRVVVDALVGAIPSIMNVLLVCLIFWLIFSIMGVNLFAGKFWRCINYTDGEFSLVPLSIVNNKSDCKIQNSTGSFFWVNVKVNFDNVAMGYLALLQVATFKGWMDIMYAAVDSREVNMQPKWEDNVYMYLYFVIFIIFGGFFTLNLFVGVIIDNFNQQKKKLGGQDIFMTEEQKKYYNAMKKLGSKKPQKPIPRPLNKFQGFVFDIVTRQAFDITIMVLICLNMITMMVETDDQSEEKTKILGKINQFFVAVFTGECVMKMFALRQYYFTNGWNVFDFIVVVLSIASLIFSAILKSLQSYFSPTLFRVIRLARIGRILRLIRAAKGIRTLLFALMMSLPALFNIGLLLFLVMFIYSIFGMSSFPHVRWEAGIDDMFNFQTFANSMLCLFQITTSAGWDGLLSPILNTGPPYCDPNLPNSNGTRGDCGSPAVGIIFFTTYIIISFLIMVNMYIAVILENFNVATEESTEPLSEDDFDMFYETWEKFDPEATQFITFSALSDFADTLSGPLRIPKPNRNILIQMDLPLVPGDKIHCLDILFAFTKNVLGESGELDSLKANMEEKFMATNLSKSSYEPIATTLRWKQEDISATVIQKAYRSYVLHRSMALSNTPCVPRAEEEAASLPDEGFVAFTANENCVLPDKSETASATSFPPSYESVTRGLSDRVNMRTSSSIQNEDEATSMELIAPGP

`Cc1[nH]c(=O)ccc1N1CN(c2ccc(F)c(F)c2C)c2cc(Cl)c(F)cc2C1=O` [Example 4A, 7-chloro-1-(3,4-difluoro-2-methylphenyl)-6-fluoro-3-(2-methyl-6-oxo-1,6-dihydropyridin-3-yl)-2,3-dihydroquinazolin-4(1H)-one] returned a solubility at 1 h in the data set “CAD kinetic solubility” of 44 µg/mL (≈ 101 µM). Also, the values for the IC50 on human Nav1.8 [1] and at human Nav1.8 [2] were 0.8 ± 0.2 nM and 5.01 nM, respectively.

Consider `Cc1cc(F)ccc1N1CN(c2ccc(=O)[nH]c2C)C(=O)c2cc(F)c(Cl)cc21` [Example 5A, 7-chloro-6-fluoro-1-(4-fluoro-2-methylphenyl)-3-(2-methyl-6-oxo-1,6-dihydropyridin-3-yl)-2,3-dihydroquinazolin-4(1H)-one], for which the solubility at 1 h in the data set “CAD kinetic solubility” worked out at 55 µg/mL (≈ 132 µM). Further, the IC50 at human Nav1.8 [1] is 2.2 nM; at human Nav1.8 [2] it was 5.01 nM.
